# Experimental data taken from paper PMC6409085, “Three odorant-binding proteins are involved in the behavioral response of Sogatella furcifera to rice plant volatiles” (PeerJ, 2019).
# “And” between values parts separate entries of the source, which are not always exact repeats. Equal values may be shown once.
# Assays:
# Experiment in all cases: biochemical
# Assay type in all cases: binding
# [1] = biological target: SfurOBP1 (Sogatella furcifera, UniProt V5T8N5); conditions: for Fluorescence competitive binding assay, fluorescence intensity: OBP1, three replicate columns
# SfurOBP1, sequence (V5T8N5 entry or part of it): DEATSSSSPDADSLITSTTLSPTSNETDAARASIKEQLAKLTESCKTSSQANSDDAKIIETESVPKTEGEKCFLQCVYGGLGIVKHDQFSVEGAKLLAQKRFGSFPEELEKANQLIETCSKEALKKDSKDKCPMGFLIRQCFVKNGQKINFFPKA
# Experimental: (§1) Thirty-six rice odorants ([He et al., 2014]; [Wang et al., 2017]) and 1-N-phenyl-naphthylamine (1-NPN) were purchased from Sigma-Aldrich (St Louis, MO, USA). These odorants and 1-NPN were dissolved in high-performance liquid chromatography (HPLC) purify grade methanol for 1.0 mM as work solution.
# (§2) Fluorescence competitive binding assays were performed on Tecan Spark 10M (Tecan Group Ltd., Männedorf, Switzerland) with the F96 Black ELIAS Plate (Sangon) ([Khuhro et al., 2017]; [Liu et al., 2017]). The solutions were excited at 337 nm and emission spectra were recorded between 390 and 490 nm. First, to test the binding constants of 1-NPN to the SfurOBPs, a 2.0 µM solution of protein in 50 mM Tris-HCl (pH = 7.4) was titrated with 1 mM 1-NPN to achieve virous concentrations. Next, the competitive binding of each odorant was measured using the 1-NPN as fluorescent reporter and odorant as competitor. The concentrations of protein and 1-NPN were both 2.0 µM, the odorant added after protein and 1-NPN added into the well of ELIAS Plate for 2 min. The final concentrations of each competitor were 2, 4, 6, 8, 10, 12, 14, 16, 18 and 20 µM. After 2 min of odorant added, the fluorescence intensity was measured and recorded. The volume of mixed solution in each well was maintained at 250 µL. Each interaction was performed in triplicates.
# (§3) GraphPad Prism 7.0 software (GraphPad Software, Inc., La Jolla, CA, USA) was used to calculated and generated the binding constants (K1−NPN) of 1-NPN to SfurOBPs and relative Scatchard plots ([Ban et al., 2003]; [Li et al., 2016]). Dissociation constant (Ki) of each odorant to SfurOBP was computed from the corresponding IC50 value (the half maximal inhibitory concentration), using the following equation: Ki=[IC50]/(1 + [1-NPN]/K1−NPN), where [1-NPN] is the free concentration of 1-NPN and K1−NPN is the dissociation constant of the complex protein/1-NPN.
# [2] = biological target: SfurOBP11 (Sogatella furcifera, UniProt V5T6E3)
# SfurOBP11, sequence (V5T6E3 entry or part of it): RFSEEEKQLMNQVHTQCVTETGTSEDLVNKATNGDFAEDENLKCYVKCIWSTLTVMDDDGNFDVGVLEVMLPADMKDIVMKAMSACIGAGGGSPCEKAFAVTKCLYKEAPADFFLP
# Experimental: as §1, §2, §3
# [3] = biological target: SfurOBP2 (Sogatella furcifera, UniProt V5T759)
# SfurOBP2, sequence (V5T759 entry or part of it): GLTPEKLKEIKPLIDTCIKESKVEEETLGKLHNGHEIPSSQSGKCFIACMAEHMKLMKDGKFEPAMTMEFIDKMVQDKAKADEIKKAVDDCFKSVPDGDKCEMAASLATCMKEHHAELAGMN
# Experimental: as §1, §2, §3
# [4] = biological target: SfurOBP3 (Sogatella furcifera, UniProt V5T818); conditions: for Fluorescence competitive binding assay, fluorescence intensity: OBP3, three replicate columns
# SfurOBP3, sequence (V5T818 entry or part of it): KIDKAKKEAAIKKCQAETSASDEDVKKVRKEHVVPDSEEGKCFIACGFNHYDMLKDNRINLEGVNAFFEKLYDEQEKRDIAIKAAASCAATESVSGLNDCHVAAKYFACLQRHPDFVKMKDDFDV
# Experimental: as §1, §2, §3
compound,measurement,setting,value
C[C@@H]1CC[C@H]2C(C)(C)[C@H]3C[C@@]12CC[C@@]3(C)O [cedrol],IC50,[1],> 20 µM
same,"Fluorescence competitive binding assay, fluorescence intensity",[1]; ligand concentration 2 (μM),6995 and 7876 and 8408
same,"Fluorescence competitive binding assay, fluorescence intensity",[1]; ligand concentration 4 (μM),8498 and 11154 and 11504
same,"Fluorescence competitive binding assay, fluorescence intensity",[1]; ligand concentration 6 (μM),10601 and 9220 and 11976
same,"Fluorescence competitive binding assay, fluorescence intensity",[1]; ligand concentration 8 (μM),9019 and 11150 and 9994
same,"Fluorescence competitive binding assay, fluorescence intensity",[1]; ligand concentration 10 (μM),10329 and 10734 and 11532
same,"Fluorescence competitive binding assay, fluorescence intensity",[1]; ligand concentration 12 (μM),12388 and 11952 and 13123
same,"Fluorescence competitive binding assay, fluorescence intensity",[1]; ligand concentration 14 (μM),12489 and 14285 and 14049
same,"Fluorescence competitive binding assay, fluorescence intensity",[1]; ligand concentration 16 (μM),13812 and 12078 and 13153
same,"Fluorescence competitive binding assay, fluorescence intensity",[1]; ligand concentration 18 (μM),15290 and 17034 and 15790
same,"Fluorescence competitive binding assay, fluorescence intensity",[1]; ligand concentration 20 (μM),14831 and 15054 and 15511
same,IC50,[2],> 20 µM
same,"Fluorescence intensity, fluorescence competitive binding assay, OBP11","[2]; ligand concentration 2, replicate 1",32664
same,"Fluorescence intensity, fluorescence competitive binding assay, OBP11","[2]; ligand concentration 2, replicate 2",32061
same,"Fluorescence intensity, fluorescence competitive binding assay, OBP11","[2]; ligand concentration 2, replicate 3",32191
same,"Fluorescence intensity, fluorescence competitive binding assay, OBP11","[2]; ligand concentration 4, replicate 1",30812
same,"Fluorescence intensity, fluorescence competitive binding assay, OBP11","[2]; ligand concentration 4, replicate 2",37566
same,"Fluorescence intensity, fluorescence competitive binding assay, OBP11","[2]; ligand concentration 4, replicate 3",35078
same,"Fluorescence intensity, fluorescence competitive binding assay, OBP11","[2]; ligand concentration 6, replicate 1",34551
same,"Fluorescence intensity, fluorescence competitive binding assay, OBP11","[2]; ligand concentration 6, replicate 2",34452
same,"Fluorescence intensity, fluorescence competitive binding assay, OBP11","[2]; ligand concentration 6, replicate 3",36785
same,"Fluorescence intensity, fluorescence competitive binding assay, OBP11","[2]; ligand concentration 8, replicate 1",32906
same,"Fluorescence intensity, fluorescence competitive binding assay, OBP11","[2]; ligand concentration 8, replicate 2",35488
same,"Fluorescence intensity, fluorescence competitive binding assay, OBP11","[2]; ligand concentration 8, replicate 3",34811
same,"Fluorescence intensity, fluorescence competitive binding assay, OBP11","[2]; ligand concentration 10, replicate 1",34631
same,"Fluorescence intensity, fluorescence competitive binding assay, OBP11","[2]; ligand concentration 10, replicate 2",35572
same,"Fluorescence intensity, fluorescence competitive binding assay, OBP11","[2]; ligand concentration 10, replicate 3",36351
same,"Fluorescence intensity, fluorescence competitive binding assay, OBP11","[2]; ligand concentration 12, replicate 1",32777
same,"Fluorescence intensity, fluorescence competitive binding assay, OBP11","[2]; ligand concentration 12, replicate 2",37222
same,"Fluorescence intensity, fluorescence competitive binding assay, OBP11","[2]; ligand concentration 12, replicate 3",35927
same,"Fluorescence intensity, fluorescence competitive binding assay, OBP11","[2]; ligand concentration 14, replicate 1",33134
same,"Fluorescence intensity, fluorescence competitive binding assay, OBP11","[2]; ligand concentration 14, replicate 2",35392
same,"Fluorescence intensity, fluorescence competitive binding assay, OBP11","[2]; ligand concentration 14, replicate 3",35226
same,"Fluorescence intensity, fluorescence competitive binding assay, OBP11","[2]; ligand concentration 16, replicate 1",32933
same,"Fluorescence intensity, fluorescence competitive binding assay, OBP11","[2]; ligand concentration 16, replicate 2",34203
same,"Fluorescence intensity, fluorescence competitive binding assay, OBP11","[2]; ligand concentration 16, replicate 3",33568
same,"Fluorescence intensity, fluorescence competitive binding assay, OBP11","[2]; ligand concentration 18, replicate 1",37284
same,"Fluorescence intensity, fluorescence competitive binding assay, OBP11","[2]; ligand concentration 18, replicate 2",38034
same,"Fluorescence intensity, fluorescence competitive binding assay, OBP11","[2]; ligand concentration 18, replicate 3",36646
same,"Fluorescence intensity, fluorescence competitive binding assay, OBP11","[2]; ligand concentration 20, replicate 1",39273
same,"Fluorescence intensity, fluorescence competitive binding assay, OBP11","[2]; ligand concentration 20, replicate 2",38740
same,"Fluorescence intensity, fluorescence competitive binding assay, OBP11","[2]; ligand concentration 20, replicate 3",33015
same,IC50,[3],> 20 µM
same,"Fluorescence competitive binding assay, OBP2 (raw fluorescence reading)","[3]; ligand concentration 2 (unit not given), replicate column 1 of 3",24497
same,"Fluorescence competitive binding assay, OBP2 (raw fluorescence reading)","[3]; ligand concentration 2 (unit not given), replicate column 2 of 3",23498
same,"Fluorescence competitive binding assay, OBP2 (raw fluorescence reading)","[3]; ligand concentration 2 (unit not given), replicate column 3 of 3",23591
same,"Fluorescence competitive binding assay, OBP2 (raw fluorescence reading)","[3]; ligand concentration 4 (unit not given), replicate column 1 of 3",27085
same,"Fluorescence competitive binding assay, OBP2 (raw fluorescence reading)","[3]; ligand concentration 4 (unit not given), replicate column 2 of 3",27496
same,"Fluorescence competitive binding assay, OBP2 (raw fluorescence reading)","[3]; ligand concentration 4 (unit not given), replicate column 3 of 3",25040
same,"Fluorescence competitive binding assay, OBP2 (raw fluorescence reading)","[3]; ligand concentration 6 (unit not given), replicate column 1 of 3",30107
same,"Fluorescence competitive binding assay, OBP2 (raw fluorescence reading)","[3]; ligand concentration 6 (unit not given), replicate column 2 of 3",26969
same,"Fluorescence competitive binding assay, OBP2 (raw fluorescence reading)","[3]; ligand concentration 6 (unit not given), replicate column 3 of 3",25579
same,"Fluorescence competitive binding assay, OBP2 (raw fluorescence reading)","[3]; ligand concentration 8 (unit not given), replicate column 1 of 3",26802
same,"Fluorescence competitive binding assay, OBP2 (raw fluorescence reading)","[3]; ligand concentration 8 (unit not given), replicate column 2 of 3",26446
same,"Fluorescence competitive binding assay, OBP2 (raw fluorescence reading)","[3]; ligand concentration 8 (unit not given), replicate column 3 of 3",25979
same,"Fluorescence competitive binding assay, OBP2 (raw fluorescence reading)","[3]; ligand concentration 10 (unit not given), replicate column 1 of 3",26972
same,"Fluorescence competitive binding assay, OBP2 (raw fluorescence reading)","[3]; ligand concentration 10 (unit not given), replicate column 2 of 3",25158
same,"Fluorescence competitive binding assay, OBP2 (raw fluorescence reading)","[3]; ligand concentration 10 (unit not given), replicate column 3 of 3",26522
same,"Fluorescence competitive binding assay, OBP2 (raw fluorescence reading)","[3]; ligand concentration 12 (unit not given), replicate column 1 of 3",24638
same,"Fluorescence competitive binding assay, OBP2 (raw fluorescence reading)","[3]; ligand concentration 12 (unit not given), replicate column 2 of 3",24959
same,"Fluorescence competitive binding assay, OBP2 (raw fluorescence reading)","[3]; ligand concentration 12 (unit not given), replicate column 3 of 3",25011
same,"Fluorescence competitive binding assay, OBP2 (raw fluorescence reading)","[3]; ligand concentration 14 (unit not given), replicate column 1 of 3",25754
same,"Fluorescence competitive binding assay, OBP2 (raw fluorescence reading)","[3]; ligand concentration 14 (unit not given), replicate column 2 of 3",26325
same,"Fluorescence competitive binding assay, OBP2 (raw fluorescence reading)","[3]; ligand concentration 14 (unit not given), replicate column 3 of 3",24806
same,"Fluorescence competitive binding assay, OBP2 (raw fluorescence reading)","[3]; ligand concentration 16 (unit not given), replicate column 1 of 3",22837
same,"Fluorescence competitive binding assay, OBP2 (raw fluorescence reading)","[3]; ligand concentration 16 (unit not given), replicate column 2 of 3",21773
same,"Fluorescence competitive binding assay, OBP2 (raw fluorescence reading)","[3]; ligand concentration 16 (unit not given), replicate column 3 of 3",21108
same,"Fluorescence competitive binding assay, OBP2 (raw fluorescence reading)","[3]; ligand concentration 18 (unit not given), replicate column 1 of 3",27379
same,"Fluorescence competitive binding assay, OBP2 (raw fluorescence reading)","[3]; ligand concentration 18 (unit not given), replicate column 2 of 3",25169
same,"Fluorescence competitive binding assay, OBP2 (raw fluorescence reading)","[3]; ligand concentration 18 (unit not given), replicate column 3 of 3",23516
same,"Fluorescence competitive binding assay, OBP2 (raw fluorescence reading)","[3]; ligand concentration 20 (unit not given), replicate column 1 of 3",25091
same,"Fluorescence competitive binding assay, OBP2 (raw fluorescence reading)","[3]; ligand concentration 20 (unit not given), replicate column 2 of 3",24420
same,"Fluorescence competitive binding assay, OBP2 (raw fluorescence reading)","[3]; ligand concentration 20 (unit not given), replicate column 3 of 3",23245
same,IC50,[4],> 20 µM
same,"Fluorescence competitive binding assay, fluorescence intensity",[4]; ligand concentration 2,55754 and 49842 and 56462
same,"Fluorescence competitive binding assay, fluorescence intensity",[4]; ligand concentration 4,68851 and 68657 and 83563
same,"Fluorescence competitive binding assay, fluorescence intensity",[4]; ligand concentration 6,77285 and 86181 and 100023
same,"Fluorescence competitive binding assay, fluorescence intensity",[4]; ligand concentration 8,86444 and 86480 and 86528
same,"Fluorescence competitive binding assay, fluorescence intensity",[4]; ligand concentration 10,98647 and 101699 and 124352
same,"Fluorescence competitive binding assay, fluorescence intensity",[4]; ligand concentration 12,107439 and 105795 and 90567
same,"Fluorescence competitive binding assay, fluorescence intensity",[4]; ligand concentration 14,124768 and 101594 and 116276
same,"Fluorescence competitive binding assay, fluorescence intensity",[4]; ligand concentration 16,81951 and 95706 and 104699
same,"Fluorescence competitive binding assay, fluorescence intensity",[4]; ligand concentration 18,130597 and 114825 and 98253
same,"Fluorescence competitive binding assay, fluorescence intensity",[4]; ligand concentration 20,111183 and 106493 and 98789
